Results: US20230157952A1, “METHOD FOR IMPROVING THE STABILITY OF A PHARMACEUTICAL COMPOSITION COMPRISING A HIGH PENETRATION DRUG, AND THE PHARMACEUTICAL COMPOSITION OBTAINED THEREFROM” (Techfields Inc., priority 2020, published 2023)

Assay: Effect of temperature (and pH) on the stability of the solution (purity)
Type: physicochemical
Conditions: 7% solution in water

SMILES: CCN(CC)CCOC(=O)Cc1c(C)n(C(=O)c2ccc(Cl)cc2)c2ccc(OC)cc12.Cl
- Purity(%) at day 0 (pH 1.0, day 0): 98.1 ± 0.3%
- Purity(%) at day 21 (5° C.) (pH 1.0, day 21, 5° C.): 92.3 ± 0.3%
- Purity(%) at day 21 (25° C.) (pH 1.0, day 21, 25° C.): 69.0 ± 0.3%
- Purity(%) at day 21 (40° C.) (pH 1.0, day 21, 40° C.): 15.3 ± 0.3%
- Purity (%) at day 21 (60° C.) (pH 1.0, day 21, 60° C.): 0%
- Purity(%) at day 0 (pH 2.0, day 0): 98.3 ± 0.4%
- Purity(%) at day 21 (5° C.) (pH 2.0, day 21, 5° C.): 95.9 ± 0.3%
- Purity(%) at day 21 (25° C.) (pH 2.0, day 21, 25° C.): 83.1 ± 0.3%
- Purity(%) at day 21 (40° C.) (pH 2.0, day 21, 40° C.): 27.5 ± 0.3%
- Purity (%) at day 21 (60° C.) (pH 2.0, day 21, 60° C.): 0%
- Purity(%) at day 0 (pH 3.0, day 0): 98.5 ± 0.2%
- Purity(%) at day 21 (5° C.) (pH 3.0, day 21, 5° C.): 97.3 ± 0.3%
- Purity(%) at day 21 (25° C.) (pH 3.0, day 21, 25° C.): 94.5 ± 0.2%
- Purity(%) at day 21 (40° C.) (pH 3.0, day 21, 40° C.): 49.3 ± 0.3%
- Purity (%) at day 21 (60° C.) (pH 3.0, day 21, 60° C.): 0%
- Purity(%) at day 0 (pH 3.7, day 0): 98.5 ± 0.2%
- Purity(%) at day 21 (5° C.) (pH 3.7, day 21, 5° C.): 97.7 ± 0.2%
- Purity(%) at day 21 (25° C.) (pH 3.7, day 21, 25° C.): 97.3 ± 0.3%
- Purity(%) at day 21 (40° C.) (pH 3.7, day 21, 40° C.): 57.9 ± 0.2%
- Purity (%) at day 21 (60° C.) (pH 3.7, day 21, 60° C.): 16.3 ± 0.5%
- Purity(%) at day 0 (pH 4.0, day 0): 98.7 ± 0.1%
- Purity(%) at day 21 (5° C.) (pH 4.0, day 21, 5° C.): 98.1 ± 0.3%
- Purity(%) at day 21 (25° C.) (pH 4.0, day 21, 25° C.): 97.5 ± 0.2%
- Purity(%) at day 21 (40° C.) (pH 4.0, day 21, 40° C.): 68.7 ± 0.3%
- Purity (%) at day 21 (60° C.) (pH 4.0, day 21, 60° C.): 19.6 ± 0.3%
- Purity(%) at day 0 (pH 4.3, day 0): 98.8 ± 0.2%
- Purity(%) at day 21 (5° C.) (pH 4.3, day 21, 5° C.): 98.3 ± 0.3%
- Purity(%) at day 21 (25° C.) (pH 4.3, day 21, 25° C.): 97.3 ± 0.3%
- Purity(%) at day 21 (40° C.) (pH 4.3, day 21, 40° C.): 70.1 ± 0.3%
- Purity (%) at day 21 (60° C.) (pH 4.3, day 21, 60° C.): 17.7 ± 0.2%
- Purity(%) at day 0 (pH 4.6, day 0): 98.7 ± 0.1%
- Purity(%) at day 21 (5° C.) (pH 4.6, day 21, 5° C.): 98.2 ± 0.2%
- Purity(%) at day 21 (25° C.) (pH 4.6, day 21, 25° C.): 96.4 ± 0.2%
- Purity(%) at day 21 (40° C.) (pH 4.6, day 21, 40° C.): 56.3 ± 0.2%
- Purity (%) at day 21 (60° C.) (pH 4.6, day 21, 60° C.): 15.3 ± 0.3%
- Purity(%) at day 0 (pH 5.0, day 0): 98.6 ± 0.3%
- Purity(%) at day 21 (5° C.) (pH 5.0, day 21, 5° C.): 97.0 ± 0.2%
- Purity(%) at day 21 (25° C.) (pH 5.0, day 21, 25° C.): 94.1 ± 0.3%
- Purity(%) at day 21 (40° C.) (pH 5.0, day 21, 40° C.): 42.8 ± 0.3%
- Purity (%) at day 21 (60° C.) (pH 5.0, day 21, 60° C.): 1.9 ± 0.2%
- Purity(%) at day 0 (pH 6.0, day 0): 98.5 ± 0.4%
- Purity(%) at day 21 (5° C.) (pH 6.0, day 21, 5° C.): 95.3 ± 0.3%
- Purity(%) at day 21 (25° C.) (pH 6.0, day 21, 25° C.): 87.8 ± 0.2%
- Purity(%) at day 21 (40° C.) (pH 6.0, day 21, 40° C.): 27.6 ± 0.2%
- Purity (%) at day 21 (60° C.) (pH 6.0, day 21, 60° C.): 0%
- Purity(%) at day 0 (pH 7.0, day 0): 98.4 ± 0.3%
- Purity(%) at day 21 (5° C.) (pH 7.0, day 21, 5° C.): 90.2 ± 0.3%
- Purity(%) at day 21 (25° C.) (pH 7.0, day 21, 25° C.): 59.9 ± 0.3%
- Purity(%) at day 21 (40° C.) (pH 7.0, day 21, 40° C.): 11.4 ± 0.4%
- Purity (%) at day 21 (60° C.) (pH 7.0, day 21, 60° C.): 0%
- Purity(%) at day 0 (pH 8.0, day 0): 98.0 ± 0.5%
- Purity(%) at day 21 (5° C.) (pH 8.0, day 21, 5° C.): 79.3 ± 0.4%
- Purity(%) at day 21 (25° C.) (pH 8.0, day 21, 25° C.): 47.6 ± 0.3%
- Purity(%) at day 21 (40° C.) (pH 8.0, day 21, 40° C.): 0%
- Purity (%) at day 21 (60° C.) (pH 8.0, day 21, 60° C.): 0%

SMILES: CCN(CC)CCOC(=O)COc1nn(Cc2ccccc2)c2ccccc12.Cl [2-(diethylamino)ethyl [(1-benzyl-1H-indazol-3-yl)oxy]acetate•HCl]
- Stability of the solution at a temperature higher than 40° C. and a pH lower than 3 or greater than 6: not stable
